Measurements reported in patent US8378117B2 (priority 2005, dated 2013).
“And” between values parts separate entries of the source, which are not always exact repeats. Equal entries are not always repeated. Where two headings read alike, the source gives them in different places.

Assays:
[1] = target: T1, CB1 receptor (Homo sapiens, UniProt P21554); test: Binding assay for CB1 agonists or inverse agonists (SK-N-MC membranes, [3H]-CP-55,940); conditions: for IC50: Cannabinoid CB1 Receptor Binding IC50, calculated by linear regression from percent inhibition at various test concentrations; for inhibition at 0.25 µM: read-out: CB1 receptor binding percent inhibition, test concentration 0.25 μM (footnote 8); for inhibition at 0.015 µM: read-out: CB1 receptor binding percent inhibition, test concentration 0.015 μM (footnote 7); for inhibition at 0.2 µM: read-out: CB1 receptor binding percent inhibition, test concentration 0.2 μM (footnote 2)
T1 construct: expressed in transfected cells
How it was run: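 Membranes from SK-N-MC cells stably expressing human CB1 incubated with compound and [3H]-CP-55,940 ([…]) for 90 min at 30° C in Tris-HCl pH 7.5, MgCl2, EDTA, fatty-acid-free BSA. Non-specific binding defined with 10 uM WIN 55,212; filtration, scintillation count; IC50 by linear regression.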

[2] = target: T2, CB2 receptor (Homo sapiens, UniProt P34972); test: Binding assay for CB2 agonists or inverse agonists (SK-N-MC membranes, [3H]-CP-55,940); conditions: for CB2 receptor binding percent inhibition: test concentration not stated; for inhibition at 0.25 µM: read-out: CB2 receptor binding percent inhibition, test concentration 0.25 μM (footnote 8); for inhibition at 0.2 µM: read-out: CB2 receptor binding percent inhibition, test concentration 0.2 μM (footnote 2)
T2 construct: expressed in transfected cells
How it was run: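 Membranes from SK-N-MC cells stably expressing human CB2 were incubated with radioligand and test compounds for 90 min at 30 °C in Tris-HCl buffer, pH 7.5, with MgCl2, EDTA and fatty-acid-free BSA. Filter-bound radioactivity was counted; IC50 was derived by linear regression of percent inhibition.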

[3] = target: T1, CB1 receptor; test: cell-based
How it was run: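 SK-N-MC cells stably co-expressing human CB1 and a CRE-β-galactosidase reporter; forskolin-induced β-gal activity measured after compound treatment, as % of vehicle-treated cells (100%). EC50 by linear regression from concentration series; otherwise % change at a single concentration.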

[4] = read-out: CB1 receptor binding percent inhibition, test concentration 1 μM (footnote 1)
[5] = CB1 Receptor Functional Inverse Agonist EC50, forskolin induced β-galactosidase activity, SK-N-MC cells
[6] = forskolin induced β-galactosidase activity, SK-N-MC cells, read-out: CB1 Receptor Functional Inverse Agonist EC50

T2 sequence (P34972 whole entry): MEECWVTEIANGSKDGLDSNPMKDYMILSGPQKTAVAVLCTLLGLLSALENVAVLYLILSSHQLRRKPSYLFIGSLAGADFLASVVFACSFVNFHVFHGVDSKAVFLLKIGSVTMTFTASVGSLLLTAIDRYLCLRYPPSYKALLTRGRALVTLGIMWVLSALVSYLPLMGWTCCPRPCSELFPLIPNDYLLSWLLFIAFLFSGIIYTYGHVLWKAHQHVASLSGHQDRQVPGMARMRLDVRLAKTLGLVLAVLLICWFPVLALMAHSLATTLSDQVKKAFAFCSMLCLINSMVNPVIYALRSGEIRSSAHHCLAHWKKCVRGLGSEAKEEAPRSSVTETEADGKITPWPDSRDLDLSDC
T1 sequence (P21554 whole entry): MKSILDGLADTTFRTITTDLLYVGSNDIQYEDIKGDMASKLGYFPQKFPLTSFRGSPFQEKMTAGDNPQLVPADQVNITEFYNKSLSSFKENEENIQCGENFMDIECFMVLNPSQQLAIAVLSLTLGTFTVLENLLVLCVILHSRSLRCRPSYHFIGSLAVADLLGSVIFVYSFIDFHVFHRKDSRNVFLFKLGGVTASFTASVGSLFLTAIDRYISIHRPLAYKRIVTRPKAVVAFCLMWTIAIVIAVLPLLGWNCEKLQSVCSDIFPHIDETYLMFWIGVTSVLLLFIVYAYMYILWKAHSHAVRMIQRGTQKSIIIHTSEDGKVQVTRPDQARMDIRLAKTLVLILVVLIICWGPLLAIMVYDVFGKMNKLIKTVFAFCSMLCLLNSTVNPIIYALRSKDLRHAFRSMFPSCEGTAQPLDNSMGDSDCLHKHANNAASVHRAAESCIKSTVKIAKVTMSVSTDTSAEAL

Compound	CB2 receptor binding percent inhibition [2] [%]	EC50 [3, 5] [nM]	IC50 [1]	inhibition at 0.25 µM [1] [%]	inhibition at 0.25 µM [2] [%]	also measured
O=C(N[C@@H]1c2ccccc2C[C@@H]1O)c1nn(C2CCCCC2)c2c1CCCC[C@@H]2Cc1ccc(F)cc1 [Cpd 120, (8R)-1-cyclohexyl-8-(4-fluoro-benzyl)-1,4,5,6,7,8-hexahydro-cycloheptapyrazole-3-carboxylic acid [(1R,2S)-2-hydroxy-indan-1-yl]-amide]	16	100				inhibition at 1 µM [1, 4]: 9%
O=S(=O)(/C=C/c1nn(-c2ccc(F)cc2F)c2c1CCCCC2Cc1ccc(F)cc1)NN1CCCCC1 (stereo not drawn) [Cpd 122, (2E)-2-[1-(2,4-difluoro-phenyl)-8-(4-fluoro-benzyl)-1,4,5,6,7,8-hexahydro-cycloheptapyrazol-3-yl]-ethenesulfonic acid piperidin-1-ylamide]	0	60				inhibition at 1 µM [1, 4]: 0%
O=S(=O)(/C=C/c1nn(-c2ccc(F)cc2F)c2c1CCCCC2Cc1cccc(F)c1)NN1CCCCC1 (stereo not drawn) [Cpd 123, (2E)-2-[1-(2,4-difluoro-phenyl)-8-(3-fluoro-benzyl)-1,4,5,6,7,8-hexahydro-cycloheptapyrazol-3-yl]-ethenesulfonic acid piperidin-1-ylamide]	14	2900				inhibition at 1 µM ([1]; read-out: CB1 receptor binding percent inhibition): 47%
Cn1nc(/C=C/S(=O)(=O)NN2CCCCC2)c2c1C(Cc1cccc(F)c1)CCCC2 (stereo not drawn) [Cpd 124, (2E)-2-[8-(3-fluoro-benzyl)-1-methyl-1,4,5,6,7,8-hexahydro-cycloheptapyrazol-3-yl]-ethenesulfonic acid piperidin-1-ylamide]	47					inhibition at 1 µM [1, 4]: 14%; EC50 [3, 6]: 3400 nM
Cn1nc(/C=C/S(=O)(=O)NN2CCCCC2)c2c1C(Cc1ccc(F)cc1)CCCC2 (stereo not drawn) [Cpd 128, (2E)-2-[8-(4-fluoro-benzyl)-1-methyl-1,4,5,6,7,8-hexahydro-cycloheptapyrazol-3-yl]-ethenesulfonic acid piperidin-1-ylamide]	0					inhibition at 1 µM [1, 4]: 0%; EC50 [3, 6]: 2700 nM
CS(=O)(=O)n1nc(C(=O)NCc2ccccc2)c2c1C(Cc1ccc(F)cc1)CCCC2 (stereo not drawn) [Cpd 130, 8-(4-fluoro-benzyl)-1-methanesulfonyl-1,4,5,6,7,8-hexahydro-cycloheptapyrazole-3-carboxylic acid benzylamide]			60 nM	84	98	EC50 ([3]; CB1 Receptor Functional Agonist EC50, SK-N-MC cells, forskolin induced β-galactosidase activity): < 30 nM
C[C@@H](NC(=O)c1nn(-c2ccc(Cl)cc2Cl)c2c1CCCC/C2=C\c1ccc(Cl)cc1)c1ccccc1 [Cpd 131, (8E)-8-(4-chloro-benzylidene)-1-(2,4-dichloro-phenyl)-1,4,5,6,7,8-hexahydro-cycloheptapyrazole-3-carboxylic acid [(1R)-1-phenyl-ethyl]-amide]		< 30	6 nM	93	34	inhibition at 0.015 µM [1]: 53%
C[C@@H](NC(=O)c1nn(-c2ccc(Cl)cc2Cl)c2c1CCCC/C2=C\c1ccc(Cl)cc1)C1CCCCC1 [Cpd 132, (8E)-8-(4-chloro-benzylidene)-1-(2,4-dichloro-phenyl)-1,4,5,6,7,8-hexahydro-cycloheptapyrazole-3-carboxylic acid [(1R)-1-cyclohexyl-ethyl]-amide]		10	5 nM	94	42	inhibition at 0.015 µM [1]: 64%
O=C(NN1CCCCC1)c1nn(-c2ccc(Cl)cc2Cl)c2c1CCCC/C2=C\c1ccc(Cl)cc1 [Cpd 133, (8E)-8-(4-chloro-benzylidene)-1-(2,4-dichloro-phenyl)-1,4,5,6,7,8-hexahydro-cycloheptapyrazole-3-carboxylic acid piperidin-1-ylamide]		30	100 nM	66	29	
O=C(NN1CCOCC1)c1nn(-c2ccc(Cl)cc2Cl)c2c1CCCC/C2=C\c1ccc(Cl)cc1 [Cpd 134, (8E)-8-(4-chloro-benzylidene)-1-(2,4-dichloro-phenyl)-1,4,5,6,7,8-hexahydro-cycloheptapyrazole-3-carboxylic acid morpholin-4-ylamide]		10		58	28	
NS(=O)(=O)c1ccc(CNC(=O)c2nn(-c3ccc(Cl)cc3Cl)c3c2CCCC/C3=C\c2ccc(Cl)cc2)cc1 [Cpd 135, (8E)-8-(4-chloro-benzylidene)-1-(2,4-dichloro-phenyl)-1,4,5,6,7,8-hexahydro-cycloheptapyrazole-3-carboxylic acid 4-sulfamoyl-benzylamide]		< 30	50 nM	65	25	
O=C(NS(=O)(=O)c1ccccc1)c1nn(-c2ccc(Cl)cc2Cl)c2c1CCCC/C2=C\c1ccc(Cl)cc1 [Cpd 136, (8E)-N-[8-(4-chloro-benzylidene)-1-(2,4-dichloro-phenyl)-1,4,5,6,7,8-hexahydro-cycloheptapyrazole-3-carbonyl]-benzenesulfonamide]		30		39	18	
CC(NC(=O)c1nn(-c2ccc(Cl)cc2Cl)c2c1CCCC/C2=C\c1ccc(Cl)cc1)c1ccc(Cl)cc1 (stereo not drawn) [Cpd 137, (8E)-8-(4-chloro-benzylidene)-1-(2,4-dichloro-phenyl)-1,4,5,6,7,8-hexahydro-cycloheptapyrazole-3-carboxylic acid [1-(4-chloro-phenyl)-ethyl]-amide]		30	10 nM	77	0	inhibition at 0.015 µM [1]: 57%
C[C@H](NC(=O)c1nn(-c2ccc(Cl)cc2Cl)c2c1CCCC/C2=C\c1ccc(Cl)cc1)C1CCCCC1 [Cpd 138, (8E)-8-(4-chloro-benzylidene)-1-(2,4-dichloro-phenyl)-1,4,5,6,7,8-hexahydro-cycloheptapyrazole-3-carboxylic acid [(1S)-1-cyclohexyl-ethyl]-amide]		100	30 nM			inhibition at 0.2 µM [1]: 71%; inhibition at 0.2 µM [2]: 22%
C[C@@H](NC(=O)c1nn(-c2ccc(Cl)cc2Cl)c2c1CCCC/C2=C\c1ccc(F)cc1)c1ccccc1 [Cpd 146, (8E)-1-(2,4-dichloro-phenyl)-8-(4-fluoro-benzylidene)-1,4,5,6,7,8-hexahydro-cycloheptapyrazole-3-carboxylic acid [(1R)-1-phenyl-ethyl]-amide]	3	20	8 nM and 10 nM			inhibition at 0.2 µM [1]: 93%; IC50 ([2]; Cannabinoid CB2 Receptor Binding IC50, calculated by linear regression from percent inhibition at various test concentrations): 2300 nM; inhibition at 0.2 µM [2]: 10%
C[C@@H](NC(=O)c1nn(-c2ccc(Cl)cc2Cl)c2c1CCCC/C2=C\c1ccc(F)cc1)C1CCCCC1 [Cpd 147, (8E)-1-(2,4-dichloro-phenyl)-8-(4-fluoro-benzylidene)-1,4,5,6,7,8-hexahydro-cycloheptapyrazole-3-carboxylic acid [(1R)-1-cyclohexyl-ethyl]-amide]		30	7 nM			inhibition at 0.2 µM [1]: 94%; inhibition at 0.2 µM [2]: 23%
C[C@H](NC(=O)c1nn(-c2ccc(Cl)cc2Cl)c2c1CCCC/C2=C\c1ccc(F)cc1)C1CCCCC1 [Cpd 148, (8E)-1-(2,4-dichloro-phenyl)-8-(4-fluoro-benzylidene)-1,4,5,6,7,8-hexahydro-cycloheptapyrazole-3-carboxylic acid [(1S)-1-cyclohexyl-ethyl]-amide]		200	80 nM			inhibition at 0.2 µM [1]: 69%; inhibition at 0.2 µM [2]: 39%
